Measured values published in patent US20080207760A1, “Pharmaceutical Compositions For and Methods of Inhibiting Hcv” (priority 2005, published 2008).
Entries after “also recorded” stand apart in the source; their conditions may differ.

What was measured:
HCV replicon cells = test: HCV replicon assay (RNA dot blot or NPTII ELISA); type: cell-based
Protocol: Cells expressing the HCV replicon are seeded onto the internal wells of 96-well plates at a density of 7,000 cells per well. One day later, different dilutions of the test compounds are added to corresponding wells and the plates are incubated in a CO2 incubator for 72 hours. After treatment, the cells are lysed with 70 μl RLN buffer per well (50 mM Tris-HCl [pH8.0], 140 mM NaCl, 1.5 mM MgCl2, 0.5% Nonidet P-40, 1,000 units/mL RNAsin and 1 mM […]). The total lysate is transferred to a new U bottom 96-well plate and nuclei and cell debris are pelleted with a brief spin (300×g for 3 minutes). 50 μl of supernatant is removed from the well and loaded directly onto manifold wells equipped with Nylon membranes. HCV RNA is hybridized at 58° C. overnight using a labeled HCV RNA probe containing a negative strand sequence complement to the NS5B region. Hybridization buffer is composed of 50% formamide, 5×SSPE, 1% SDS, 5× Denhart's solution, and sheared denatured salmon sperm DNA. Following hybridization, the membrane is washed with washing buffer (0.1×SSC, 0.1% SDS) at room temperature for two hours, then at 65° C. for 30 minutes. The radioactivity in each well is counted on a Microbeta counter and EC50 is calculated based on cpm. Alternatively, HCV replicon cells are trypsinized for 5-10 minutes in a CO2 incubator. Then, cells are placed in a 15 mL tube, and are spun at 1000 rpm for 4 minutes and trypsin solution is removed. Cell pellets are washed once with PBS and spun 4 minutes at 1000 rpm.
Trypsinization and wash steps, supra, are conducted efficiently to minimize cell death. PBS is removed and cells are resuspended in 4 mL fresh PBS and cells are seeded at a dilution of 5000 cells per well to 96 well plates. Test compounds are diluted in 96 well U bottom plates with DMEM (high glucose) (BRL, Catalog #21063) supplemented with 10% FBS, L-glutamine, and non-essential amino acid. 100 uL of test compound is loaded into each well. […]
100 uL of development solution (TMB one-step substrate system) is added and plates are developed in the dark for 10 to 30 minutes. […] OD450 is measured. […]

synthetic NS4A [1] = molecular target: T1, synthetic NS4A (Hepatitis C virus genotype 1b, UniProt Q9WMX2); test: Competition assay with [3H] labeled azidoacylthiourea for NS4A binding; design: species or system HCV
T1 construct: The full length of NS4A (54 amino acids) is synthesized; made in house
T1 sequence (Q9WMX2 1658-1711): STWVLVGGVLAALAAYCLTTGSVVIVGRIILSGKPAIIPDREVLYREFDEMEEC
Protocol: (§1) To determine whether acylthiourea compounds bind to NS4A, a photo-affinity labeling is carried out, in which an [^3H] labeled photo-reactive azidoacylthiourea, 1-(5-Azido-benzofuran-2-carbonyl)-3-(4-pentyloxy-3-trifluoromethyl-phenyl)-thiourea, is mixed with synthetic NS4A at various molar ratios. The mixture is incubated at 31° C. for one hour. Samples are then illuminated by a UV lamp (254 nm wavelength) at room temperature for 7 minutes. After denaturing with equal volume of Laemmli buffer containing 5% mercaptoethanol at 99° C. for 5 minutes, samples are separated on a 10-20% SDS-PAGE. After electrophoresis, the gel is fixed with 30% methanol—10% acetic acid overnight. Then the gel is treated with 3H enhancer solution (PerkinElmer) at room temperature for one hour, and subsequently with water for 30 minutes, and dried under vacuum.
To study the binding specificity of [^3H] labeled 1-(5-Azido-benzofuran-2-carbonyl)-3-(4-pentyloxy-3-trifluoromethyl-phenyl)-thiourea to synthetic NS4A, several structurally related compounds are used in the following competition assays. Non-labeled 1-(5-Azido-benzofuran-2-carbonyl)-3-(4-pentyloxy-3-trifluoromethyl-phenyl)-thiourea shares the same structure with [^3H] labeled 1-(5-Azido-benzofuran-2-carbonyl)-3-(4-pentyloxy-3-trifluoromethyl-phenyl)-thiourea. 1-(5-Azido-benzofuran-2-carbonyl)-3-(4-pentyloxy-3-trifluoromethyl-phenyl)-urea differs in structure from 1-(5-Azido-benzofuran-2-carbonyl)-3-(4-pentyloxy-3-trifluoromethyl-phenyl)-thiourea in that 1-(5-Azido-benzofuran-2-carbonyl)-3-(4-pentyloxy-3-trifluoromethyl-phenyl)-urea has a carbonyl group where 1-(5-Azido-benzofuran-2-carbonyl)-3-(4-pentyloxy-3-trifluoromethyl-phenyl)-thiourea has a thiocarbonyl group. […]

full-length NS3 = full-length NS3 (Hepatitis C virus genotype 1b, UniProt Q9WMX2); test: Photo-affinity labeling; type: binding, HCV; settings: [3H] labeled compound; same molar ratio as NS4A (3.3 μM)
Chain of full-length NS3 (Q9WMX2 1027-1657): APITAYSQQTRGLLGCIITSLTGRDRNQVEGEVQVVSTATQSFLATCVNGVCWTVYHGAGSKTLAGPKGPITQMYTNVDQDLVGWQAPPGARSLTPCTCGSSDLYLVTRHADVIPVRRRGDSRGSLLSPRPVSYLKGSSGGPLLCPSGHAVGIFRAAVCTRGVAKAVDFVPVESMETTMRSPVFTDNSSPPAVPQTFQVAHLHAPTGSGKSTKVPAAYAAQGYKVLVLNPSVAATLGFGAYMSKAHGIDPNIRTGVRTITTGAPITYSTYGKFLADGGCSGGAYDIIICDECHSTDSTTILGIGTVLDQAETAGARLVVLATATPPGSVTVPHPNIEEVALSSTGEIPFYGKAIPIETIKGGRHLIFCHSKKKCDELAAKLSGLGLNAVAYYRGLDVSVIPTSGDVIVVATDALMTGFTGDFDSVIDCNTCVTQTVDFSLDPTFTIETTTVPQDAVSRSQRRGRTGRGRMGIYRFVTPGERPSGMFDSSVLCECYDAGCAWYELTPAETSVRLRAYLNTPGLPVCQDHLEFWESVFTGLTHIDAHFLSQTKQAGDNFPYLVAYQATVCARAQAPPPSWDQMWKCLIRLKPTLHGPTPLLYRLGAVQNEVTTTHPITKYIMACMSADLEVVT
Protocol: as §1
(§2) One band corresponds to NS4A monomer, which is also detectable with Coomassie blue staining (FIG. 3). […] Without being bound by any particular theory, it is believed that this band may be composed largely of polymer form or aggregates of NS4A. At the same time, full-length NS3 and NS3 protease domain is included in this binding assay.

NS3 protease domain = NS3 protease domain (Hepatitis C virus genotype 1b, UniProt Q9WMX2); test: Photo-affinity labeling; type: binding, HCV; settings: [3H] labeled compound; same molar ratio as NS4A (3.3 μM)
Chain of NS3 protease domain (Q9WMX2 1027-1208): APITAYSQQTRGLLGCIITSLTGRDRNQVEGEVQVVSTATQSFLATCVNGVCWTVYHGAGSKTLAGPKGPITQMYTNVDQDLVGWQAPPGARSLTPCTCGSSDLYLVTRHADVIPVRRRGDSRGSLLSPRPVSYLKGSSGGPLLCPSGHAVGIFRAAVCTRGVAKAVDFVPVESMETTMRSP
Protocol: as §1, §2

synthetic NS4A [2] = molecular target: T1, synthetic NS4A; test: Photo-affinity labeling; type: binding, HCV; settings: [3H] labeled compound, UV 254 nm, SDS-PAGE
Protocol: Experiments are undertaken to investigate the affinity and binding specificity of acylthiourea compounds to NS4A. The full length of NS4A (54 amino acids) is synthesized, and characterized with mass spectral analysis and HPLC profiling. An NS4A sample is then dissolved in 100% dimethylsulphoxide (DMSO) at a concentration of 2 μg/μl and subjected to a 10-20% SDS-PAGE with a reducing reagent. A 6 kDa protein band, consistent with the size of NS4A, is detected in the gel following a Coomassie blue staining. The NS4A identity of this band is further confirmed by a Western blot with monoclonal anti-NS4A antibody.
as §1, with “Then the gel is treated with 3H enhancer solution (PerkinElmer) at room temperature for one hour, and subsequently with water for 30 minutes, and dried under vacuum.” left out

| SMILES | anti-HCV activity in replicon cells (HCV replicon cells) | competition with [3H] labeled 1-(5-Azido-benzofuran-2-carbonyl)-3-(4-pentyloxy-3-trifluoromethyl-phenyl)-thiourea for NS4A binding (synthetic NS4A [1]) | binding to full-length NS3 (full-length NS3) | binding to NS3 protease domain (NS3 protease domain) | binding to synthetic NS4A (synthetic NS4A [2]) |
| --- | --- | --- | --- | --- | --- |
| CCCCCOc1ccc(NC(=S)NC(=O)c2cccnc2)cc1C(F)(F)F [1-(4-Pentyloxy-3-trifluoromethyl-phenyl)-3-(pyridine-3-carbonyl)-thiourea] | exhibit anti-HCV activities in replicon cells | effectively compete | – | – | – |
| CCCCCOc1ccc(NC(=S)NC(=O)c2cc3cc(N=[N+]=[N-])ccc3o2)cc1C(F)(F)F [1-(5-Azido-benzofuran-2-carbonyl)-3-(4-pentyloxy-3-trifluoromethyl-phenyl)-thiourea] | – | – | only weak binding signals | only weak binding signals | binds to synthetic NS4A; also recorded: two radioactive bands are shown in the gel |
| CCCCCOc1ccc(NC(=O)NC(=O)c2cc3cc(N=[N+]=[N-])ccc3o2)cc1C(F)(F)F [1-(5-Azido-benzofuran-2-carbonyl)-3-(4-pentyloxy-3-trifluoromethyl-phenyl)-urea] | does not exhibit any anti-HCV activity in replicon cells | does not compete; also recorded: appears to abolish this competition capacity | – | – | – |
| CCCCCOc1ccc(NC(=S)NC(=O)c2cc3ccccc3o2)cc1C(F)(F)F [1-(Benzofuran-2-carbonyl)-3-(4-pentyloxy-3-trifluoromethyl-phenyl)-thiourea] | exhibit anti-HCV activities in replicon cells | effectively compete | – | – | – |
